Tests used:
[1] = Stability in human liver microsomes; settings: microsomes
[2] = Stability in human liver S9 fraction

Compound: C[C@]12CC[C@H]3[C@@H](CCC4=CC(=O)CC[C@@]43C)[C@@H]1CC[C@@H]2O [Testosterone, reference compound]
- half-life [1]: 8 to 20 min
- half-life [2]: 39 min

Reference: patent US8114862B2, “TGR5 modulators and methods of use thereof” (Intercept Pharmaceuticals, Inc., priority 2008, dated 2012)
